From patent publication US20230404998A1, “Combination Therapies for Treating Cancer” (ASCENTAGE PHARMA (SUZHOU) CO., LTD., priority 2020, published 2023)
“Also recorded” adds a separate entry of the source. Marks after values point to notes of the source that are not given here.

Columns and labels:
[1] = system: VEGFR, SRC, Akt and extracellular signal-regulated kinases in vascular endothelial cells; assay: Phosphorylation of VEGFR, SRC and downstream proteins in vascular endothelial cells; format: cell-based
[2] = system: E255V/T315I orthotopic tumor model; assay: In vivo efficacy, E255V/T315I orthotopic tumor model; design: species or system mouse; details: ABL001 60 mg/kg, Ponatinib 20 mg/kg, HQP1351 20 mg/kg
Method: (§1) In vivo efficacy was evaluated using the syngeneic mouse model derived from BaF3 cells with T315I and/or compound mutations. Tumor models were established by intravenously injecting tumor cells (1×10^5/mouse) into the caudal vein under sterile conditions. Mice were randomized into control and treatment groups with 8-10 mice per group and start the treatment from the second day post inoculation. The animal body weights were measured twice a week. The antitumor activity curves of test articles were plotted with the treatment time (day) on the X-axis, and corresponding survival rate on the Y-axis. A Log-rank (Mental-cox) test was employed to analyze the statistical significance of any difference between the treatment group and the control group. Prism version 7 (GraphPad Software Inc., San Diego, CA) was used for all statistical analysis and for graphic presentation.

Ph+ ALL SUP-B15 cells = assay: Cell viability assay (Cell-Titer Glo) in leukemia cell lines; format: cell-based; details: 72 hours
Method: After treatment, cell viability was measured by Promega© Cell-Titer Glo®3D Cell Viability Assay luminescence assay kit according to instructions from the manufacturer (Promega, Madison, WI, USA, Cat #G7571). Luminescence signal was detected using a BioTek Synergy H1 Hybrid Multi-Mode (Microplate) Reader (BioTek, Shanghai). Cellular proliferative (i.e. viability) curves were plotted and anti-proliferation IC50 values were calculated using Graphpad Prism version 6.0 software (GraphPad Software, San Diego, CA USA).

RANCA = assay: Antiproliferative activity in RCC line RANCA; format: cell-based; details: Mus musculus; murine RCC line RANCA
VEGFR3 = VEGFR3 (Homo sapiens, UniProt P35916); assay: Cell-free kinase assay VEGFR3; format: biochemical
VEGFR1 = VEGFR1 (Homo sapiens, UniProt P17948); assay: Cell-free kinase assay VEGFR1; format: biochemical
[3] = system: T315I orthotopic tumor model; assay: In vivo efficacy, T315I orthotopic tumor model; design: species or system mouse; details: ABL001 60 mg/kg, Ponatinib 20 mg/kg, HQP1351 20 mg/kg
Method: as §1

[4] = system: F317L/T315I orthotopic tumor model; assay: In vivo efficacy, F317L/T315I orthotopic tumor model; design: species or system mouse; details: ABL001 60 mg/kg, Ponatinib 20 mg/kg, HQP1351 20 mg/kg
Method: as §1

PD-L1 in RCC cells = assay: PD-L1 expression in RCC cells; format: cell-based
[5] = molecular target: BaF3(Bcr-Abl) Y253H-F359V (Homo sapiens, UniProt P00519, Y253H/F359V, cells depend on it); details: read-out: Anti-proliferation (IC50)
Method: (§2) The anti-proliferative effect was determined by a water-soluble tetrazolium (WST)-based assay using Cell Counting Kit-8 (CCK-8, #D3100L4057, Shanghai life ilab bio technology co., LTD, China). Cells were seeded in 96-well plates and treated with different concentrations of test articles. […] Each treatment was tested in triplicates. The plate was then cultured at 37° C. with 5% CO2 for 72 hours. At the end of treatments, 20 μl/well of CCK-8 reagent was directly added to each wells. The plate was then incubated at 37° C. with 5% CO2 for 2-4 h. The OD value was detected at 450 nm on a microplate reader (SpectraMax I3X, Molecular Devices, US). IC50 values were calculated with Graphpad Prism 7.0 software using nonlinear regression (curve fitting) type data analysis. For combination effect assay, the cells viability was normalized using the mean OD value of triplicated wells for the single agent control.

[6] = molecular target: BaF3(Bcr-Abl) T315I-F317L (Homo sapiens, UniProt P00519, T315I/F317L, cells depend on it); details: read-out: Anti-proliferation (IC50)
Method: as §2

BaF3(Bcr-Abl) T315M = BaF3(Bcr-Abl) T315M (Homo sapiens, UniProt P00519, T315M, cells depend on it); details: read-out: Anti-proliferation (IC50)
Method: as §2

[7] = molecular target: BaF3(Bcr-Abl) T315I-Y253H (Homo sapiens, UniProt P00519, Y253H/T315I, cells depend on it); details: read-out: Anti-proliferation (IC50)
Method: as §2

BaF3(Bcr-Abl) E255V = BaF3(Bcr-Abl) E255V (Homo sapiens, UniProt P00519, E255V, cells depend on it); details: read-out: Anti-proliferation (IC50)
Method: as §2

BaF3(Bcr-Abl) T35I-F311I = BaF3(Bcr-Abl) T35I-F311I (Homo sapiens, UniProt P00519, F311I/T315I, cells depend on it); details: read-out: Anti-proliferation (IC50)
Method: as §2

[8] = molecular target: BaF3(Bcr-Abl) T315I-F359V (Homo sapiens, UniProt P00519, T315I/F359V, cells depend on it); details: read-out: Anti-proliferation (IC50)
Method: as §2

[9] = molecular target: BaF3(Bcr-Abl) T315I-G250E (Homo sapiens, UniProt P00519, G250E/T315I, cells depend on it); details: read-out: Anti-proliferation (IC50)
Method: as §2

BaF3(Bcr-Abl) T3151 = BaF3(Bcr-Abl) T3151 (Homo sapiens, UniProt P00519, T315I, cells depend on it); details: read-out: Anti-proliferation (IC50)
Method: as §2

[10] = system: human umbilical vein endothelial cells; assay: Antiproliferative effects on human umbilical vein endothelial cells; format: cell-based
RAG = assay: Antiproliferative activity in RCC line RAG; format: cell-based; details: Mus musculus; murine RCC line RAG
FGFR = assay: Phosphorylation of FGFR and downstream proteins in cancer cells; format: cell-based
[11] = molecular target: T1, BCR-ABL single or compound mutations (BaF3 cells) (Homo sapiens, UniProt P00519, cells depend on it, form not given); assay: Cell based anti-proliferation studies, BaF3 cells with BCR-ABL single or compound mutations (summary); design: species or system murine
T1 construct: fused on or other part: P11274 (Breakpoint cluster region protein)
Method: as §2
A series of cell lines expressing BCR-ABL single or compound mutations were constructed based on BaF3 murine pro-B cell line.

Sequence of VEGFR1 (P17948 27-1338, species assumed): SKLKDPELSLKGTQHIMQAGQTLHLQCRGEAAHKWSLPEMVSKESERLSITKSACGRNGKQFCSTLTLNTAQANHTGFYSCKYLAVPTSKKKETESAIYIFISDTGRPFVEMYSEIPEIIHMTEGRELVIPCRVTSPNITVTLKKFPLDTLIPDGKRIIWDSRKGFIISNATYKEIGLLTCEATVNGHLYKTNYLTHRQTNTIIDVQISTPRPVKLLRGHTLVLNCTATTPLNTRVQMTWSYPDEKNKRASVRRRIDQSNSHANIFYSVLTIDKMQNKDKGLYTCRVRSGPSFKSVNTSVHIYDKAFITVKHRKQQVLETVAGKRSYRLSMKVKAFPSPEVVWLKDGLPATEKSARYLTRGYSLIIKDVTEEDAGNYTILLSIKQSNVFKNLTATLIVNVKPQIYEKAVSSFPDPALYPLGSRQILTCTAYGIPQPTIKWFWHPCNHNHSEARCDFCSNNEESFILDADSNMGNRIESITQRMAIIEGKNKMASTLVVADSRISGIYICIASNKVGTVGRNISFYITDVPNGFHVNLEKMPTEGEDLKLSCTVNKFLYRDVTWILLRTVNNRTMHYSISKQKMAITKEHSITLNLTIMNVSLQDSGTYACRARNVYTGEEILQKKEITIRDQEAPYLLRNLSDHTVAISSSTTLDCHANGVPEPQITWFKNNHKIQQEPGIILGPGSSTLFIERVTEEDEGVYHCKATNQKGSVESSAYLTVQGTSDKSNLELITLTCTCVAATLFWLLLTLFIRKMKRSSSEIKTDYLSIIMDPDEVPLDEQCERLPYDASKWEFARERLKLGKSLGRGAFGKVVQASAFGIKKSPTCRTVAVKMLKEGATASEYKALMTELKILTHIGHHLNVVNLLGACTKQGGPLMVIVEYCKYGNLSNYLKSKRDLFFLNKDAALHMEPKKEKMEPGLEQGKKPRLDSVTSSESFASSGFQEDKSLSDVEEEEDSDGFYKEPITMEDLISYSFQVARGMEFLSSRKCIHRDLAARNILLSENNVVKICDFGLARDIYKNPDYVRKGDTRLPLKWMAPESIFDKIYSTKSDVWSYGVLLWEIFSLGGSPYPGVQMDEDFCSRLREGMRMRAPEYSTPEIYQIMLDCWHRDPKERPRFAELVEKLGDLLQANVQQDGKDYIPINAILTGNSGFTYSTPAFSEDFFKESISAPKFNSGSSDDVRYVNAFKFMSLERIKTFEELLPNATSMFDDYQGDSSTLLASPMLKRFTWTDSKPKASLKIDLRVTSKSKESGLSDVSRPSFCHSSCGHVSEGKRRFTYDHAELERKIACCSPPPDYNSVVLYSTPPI
Sequence of VEGFR3 (P35916 25-1363): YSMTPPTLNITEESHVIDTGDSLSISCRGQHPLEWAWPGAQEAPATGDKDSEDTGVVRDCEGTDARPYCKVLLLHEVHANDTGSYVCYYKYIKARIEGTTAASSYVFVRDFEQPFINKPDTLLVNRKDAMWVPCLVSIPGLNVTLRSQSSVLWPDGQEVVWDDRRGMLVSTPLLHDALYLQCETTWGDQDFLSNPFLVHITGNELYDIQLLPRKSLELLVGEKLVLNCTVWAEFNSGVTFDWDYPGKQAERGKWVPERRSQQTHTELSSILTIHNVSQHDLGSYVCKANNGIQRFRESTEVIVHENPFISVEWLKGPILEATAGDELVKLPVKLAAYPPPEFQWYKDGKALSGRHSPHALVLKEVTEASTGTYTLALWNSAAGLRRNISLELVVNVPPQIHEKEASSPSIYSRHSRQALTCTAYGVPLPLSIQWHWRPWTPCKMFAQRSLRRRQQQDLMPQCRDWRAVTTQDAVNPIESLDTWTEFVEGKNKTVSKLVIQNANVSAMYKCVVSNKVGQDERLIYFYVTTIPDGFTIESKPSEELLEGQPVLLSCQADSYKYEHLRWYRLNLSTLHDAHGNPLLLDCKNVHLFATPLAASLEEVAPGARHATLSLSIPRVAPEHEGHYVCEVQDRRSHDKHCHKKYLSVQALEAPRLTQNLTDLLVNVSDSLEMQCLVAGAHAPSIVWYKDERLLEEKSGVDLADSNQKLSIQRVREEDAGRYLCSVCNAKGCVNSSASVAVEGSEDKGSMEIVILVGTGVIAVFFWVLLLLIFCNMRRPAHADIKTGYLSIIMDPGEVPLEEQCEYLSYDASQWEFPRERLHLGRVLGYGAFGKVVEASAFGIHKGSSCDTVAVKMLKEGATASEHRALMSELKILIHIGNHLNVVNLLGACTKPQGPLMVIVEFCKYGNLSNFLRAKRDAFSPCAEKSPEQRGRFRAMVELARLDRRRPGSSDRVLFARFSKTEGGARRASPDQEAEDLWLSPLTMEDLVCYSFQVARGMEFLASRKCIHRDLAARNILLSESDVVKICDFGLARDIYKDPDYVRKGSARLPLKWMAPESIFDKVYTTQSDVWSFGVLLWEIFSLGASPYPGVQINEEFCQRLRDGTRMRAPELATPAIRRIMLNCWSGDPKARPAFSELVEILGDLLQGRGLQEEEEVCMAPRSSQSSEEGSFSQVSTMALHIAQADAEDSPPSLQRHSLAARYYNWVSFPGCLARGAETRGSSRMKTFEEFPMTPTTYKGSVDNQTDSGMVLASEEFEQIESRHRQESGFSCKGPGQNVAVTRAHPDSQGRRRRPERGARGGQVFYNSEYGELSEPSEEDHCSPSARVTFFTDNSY

Cc1ccc(C(=O)Nc2ccc(CN3CCN(C)CC3)c(C(F)(F)F)c2)cc1C#Cc1cnc2[nH]ncc2c1 [HQP1351, 3-(2-(1H-pyrazolo[3,4-b]pyridin-5-yl)ethynyl)-4-methyl-N-(4-((4-methylpiperazin-1-yl)methyl)-3-(trifluoromethyl)phenyl)-benzamide]
Phosphorylation of VEGFR, SRC, and downstream proteins Akt and extracellular signal-regulated kinases [1]: inhibiting phosphorylation of VEGFR, SRC, and downstream proteins
Median survival [2]: 27.0****
Survival prolongation (%) [2]: 28.57%
Survive/Total @ D26 [2]: 0/10
Proliferation of Ph+ leukemia cells including SUP-B15 (Ph+ ALL SUP-B15 cells): selectively inhibited the proliferation of Ph+ cells; also recorded: potently inhibits the proliferation
IC50 (RANCA): 141 nM
IC50 (VEGFR3): 4.1 nM
IC50 (VEGFR1): 4.2 nM
Median survival [3]: 27.0****
Survival prolongation (%) [3]: 28.57%
Survive/Total @ D43 [3]: 0/10
Median survival [4]: 25.0****^$
Survival prolongation (%) [4]: 42.86%
Survive/Total @ 24 [4]: 0/8
Expression of PD-L1 in RCC cells (PD-L1 in RCC cells): reduced expression of PD-L1
GI50 [5]: 311 ± 35 nM
GI50 [6]: 117 ± 23 nM
GI50 (BaF3(Bcr-Abl) T315M): 217 ± 131 nM
GI50 [7]: 114 ± 1 nM
GI50 (BaF3(Bcr-Abl) E255V): 27 ± 11 nM
GI50 (BaF3(Bcr-Abl) T35I-F311I): 78 ± 46 nM
GI50 [8]: 20 ± 10 nM
GI50 [9]: 33 ± 2 nM
GI50 (BaF3(Bcr-Abl) T3151): 24 ± 10 nM
Antiproliferative effects compared to lenvatinib [10]: more potent antiproliferative effects
IC50 (RAG): 53 nM
Phosphorylation of FGFR and downstream proteins (FGFR): inhibiting phosphorylation of FGFR and downstream proteins
Anti-proliferative effectiveness against compound mutations compared with other TKIs ([11]; BCR-ABL compound mutations): more effective than ponatinib, asciminib and other TKIs
GI50 ([11]; read-out: IC50 values toward BCR-ABL single or compound mutations, range over BaF3 BCR-ABL mutant cell lines): 6 to 300 nM
